What was measured:
rat beta cells [1] = test: Beta cell DNA synthesis/proliferation by EdU (and BrdU) incorporation, incl. LOPAC screen; type: cell-based; conditions: for effect on 6MP induced DNA-synthesis and increase in cell numbers: JSH-23 10 μM, Bay11-7085 5 μM
Experimental: (§1) On day 1, 9 and 15 of culture, total numbers of living beta cells per well were determined by semi-automatic cell count, after Hoechst 33342 (Ho) and propidium iodide (PI) staining. Numbers of living beta cells were obtained by subtracting the PI-positive cell numbers from the Ho-positive cell numbers, and correcting for the percent insulin-negative cells, as determined following insulin-immunofluorescence staining. They were expressed as percent of the numbers on day 1. Each condition was also evaluated for increases in the percentage of proliferating beta cells (incorporating the thymidine-analogue 5-ethynyl-2′-deoxyuridine, EdU; 100 μmol/l). To detect beta cells that underwent two successive cycles, cells were sequentially exposed to two different thymidine-analogs, first EdU from day 3 to 6, and then BrdU (100 μmol/l) from day 7 to 10, with a 24-hour label-free period in between. EdU-positive (EdU^+) nuclei were detected with the Click-iT Assay kit (Invitrogen), while BrdU-positive (BrdU^+) nuclei were identified with anti-BrdU antibody.
Freshly purified beta cells were cultured in control medium for 24 h prior to the addition of the LOPAC test compounds (day 1). The culture medium was refreshed on day 3 and the cells were then cultured further with 5-ethynyl-2′-deoxyuridine (EdU; 10 μM) up to day 6. Cell viability and percentage EdU incorporation were quantified after imaging and image analysis using the BD Pathway Bioimager, as described before (Assefa et al., 2014). To test the significance of compound effect on beta cell proliferation, average Z-score for each compound was calculated and a cut-off for potential positive hits was set at a Z-score of greater than three standard deviations. Thus, a compound is considered a hit only if it increases the percent EdU incorporation to above three standard deviation of the plate-averaged percent EdU incorporation.
(§2) Sorted beta cells were seeded in 384-well or 6-well plates coated with 804G matrix, and kept in culture for up to 15 days at 37° C. 5% CO2 using Ham F10 supplemented with 1 mM L-glutamine, 0.1 mg/ml streptomycin, 0.075 mg/ml penicillin, 50 μM of isobutyl-1-methylxanthine (IBMX) at 10 mM D-glucose with and without synthetic GCs (6 methyl-prednisolone (6MP), dexamethasone (DEX), GR-modulators (compound A (CPA), mifepristone (MIF), and NFκB inhibitors (JSH-23 en Bay11-7085). Total cell number and beta cell viability was evaluated after incubation with Hoechst 33342 and propidium iodide. All chemicals were from Sigma Life Sciences or Merck. Quantification of cell numbers and analysis of beta-cell viability was done using the Pathway Bioimager (BD Biosciences) and using IPlab and Attovision software for background subtraction as described prior (Assefa et al., 2014). Replicating beta cells were quantified after 24 or 72 hrs incubation with 5-ethynyl-2′-deoxyuridine (EdU, a thymidine analog) using the ClickIT EDU Alexa Fluor assay (Invitrogen). EdU-positive cells were expressed as percentage of total cell number.

rat beta cells [2] = test: Number of living beta cells in culture (Hoechst 33342/propidium iodide whole-well imaging counts; expansion assay); type: cell-based; conditions: for Number of Living Cells on Day 15 (% of Day 1): control 101 ± 7; for concentration giving maximal inhibition / prevention of DEX-stimulated increase of beta cell numbers: with 0.01 μM DEX, d1 to d15
Experimental: Beta cells were FACS-purified from islet-cell enriched suspensions (Pipeleers et al., 1985) prepared from neonatal (2-3 days-old) and adolescent or adult (8 or 40-week-old, male) Wistar rats (Janvier Bioservices, France); their purity was, respectively 70-75% and over 90%. Sorted cells were counted in a hemocytometer, seeded (day 0) and cultured for up to 15 days in serum-free Ham's-F10 medium at 5, 10 or 20 mmol/l glucose, supplemented with 2 mmol/l L-glutamine, 50 μM 3-isobutyl-1-methylxanthine, 0.5% Albumax-I, penicillin (100 U/ml) and streptomycin (0.1 mg/ml). The 10 mmol/l glucose condition is known to maintain beta cell survival over 9-days (Ling et al., 1994; Ling and Pipeleers, 1994). Medium and cells were retrieved after selected culture periods and assayed for insulin content; data were expressed as a function of the number of living beta cells that was determined in parallel wells.
as §1
Absolute number of cells was determined by whole-well imaging using the BD-PathwayBioimager855 (BD-Biosciences). IPLab and AttoVision software packages (BD-Biosciences) were used for image background subtraction, segmentation and quantification.
Experimental procedures for isolation of beta cells from neonatal (2-3 days old) and adult (8 or 40 week old, male) Wistar rats (Janvier Bioservices, France) and analysis of their number, viability and proliferation activity in culture have been described before (Assefa et al., 2014). Sorted beta cells were seeded in 804G matrix-coated plates (designated as day 0) and the numbers and viability of seeded cells at the start of all experiments were determined on day 1 (24 h after seeding). The cells were cultured in control medium, which is a serum-free Ham's F10 medium supplemented with 2 mM L-glutamine, 50 μM 3-isobutyl-1-methylxanthine, 0.5% Albumax I, penicillin (100 U/ml), streptomycin (0.1 mg/ml) and, unless indicated otherwise, 10 mM glucose.
as §2, with “2014).” for “2014). Replicating beta cells were quantified after 24 or 72 hrs incubation with 5-ethynyl-2′-deoxyuridine (EdU, a thymidine analog) using the ClickIT EDU Alexa Fluor assay (Invitrogen). EdU-positive cells were expressed as percentage of total cell number.”

[3] = tested on: GR trans-repression and trans-activation targets, cell cycle genes and beta cell phenotype markers; test: Q-PCR of mRNA levels in cultured beta cells; type: cell-based, rat; conditions: for effect on ICAM1 mRNA levels: NFkB-inhibitors, relative to vehicle control
[4] = 9 days culture, 1 μM 6MP, 1 μM MIF, 0.5 μM CPA, vehicle = 1.0
[5] = control medium + compound 1 μM, 15 days

For `COC(=O)C1=C(C)NC(C)=C([N+](=O)[O-])C1c1ccccc1C(F)(F)F` (racemic) [(±)-Bay K 8644], the “hit status in LOPAC screen based on Z-scores” value (rat beta cells [1]; 1 μM, adult rat beta cells) was “potential inducers of beta cell proliferation”.

With `C[C@]12CCC(=O)C=C1CC[C@@H]1[C@@H]2[C@@H](O)C[C@]2(C=O)[C@@H](C(=O)CO)CC[C@@H]12` [Aldosterone, aldosterone] the “Number of Living Cells on Day 15 (% of Day 1)” value (“Number … (% of Day 1)” below) (rat beta cells [2]; control medium + compound 0.1 μM, 15 days) was 112 ± 5 % of Day 1.

In the case of `CC(C)(C)c1ccc(S(=O)(=O)/C=C/C#N)cc1` [Bay11-7085], the “effect on 6MP induced DNA-synthesis and increase in cell numbers” value (rat beta cells [1]) is reported as “does not inhibit” and the “effect on ICAM1 mRNA levels” value [3] is reported as “suppressing”.

For `CNCC(Cl)c1ccc(OC(C)=O)cc1.Cl` (stereo not drawn) [CPA], the “change of beta cell numbers between day 1 and 15” value (rat beta cells [2]; 6MP 1 μM, DEX 0.01 μM, CPA 0.5 μM) was “no change of beta cell numbers”, the “concentration giving maximal inhibition / prevention of DEX-stimulated increase of beta cell numbers” value (rat beta cells [2]) was 0.5 µM and the “CDK4 mRNA level (ΔΔCt values relative to basal vehicle control)” value [3, 4] was 1.1 ± 0.2. The “CXCL11 mRNA level (ΔΔCt values relative to basal vehicle control)” value [3, 4] was 1.1 ± 0.3, the “Cyclin B1 mRNA level (ΔΔCt values relative to basal vehicle control)” value [3, 4] was 0.8 ± 0.4 and the “Cyclin B2 mRNA level (ΔΔCt values relative to basal vehicle control)” value [3, 4] was 0.5 ± 0.1^2. The “Cyclin E1 mRNA level (ΔΔCt values relative to basal vehicle control)” value [3, 4] was 1.0 ± 0.1, the “CyclinD1 mRNA level (ΔΔCt values relative to basal vehicle control)” value [3, 4] was 0.7 ± 0.1^1 and the “DLK1 mRNA level (ΔΔCt values relative to basal vehicle control)” value [3, 4] was 1.4 ± 0.4. For the same molecule, the “FKBP4 mRNA level (ΔΔCt values relative to basal vehicle control)” value [3, 4] was 0.9 ± 0.2, the “FKBP5 mRNA level (ΔΔCt values relative to basal vehicle control)” value [3, 4] was 1.3 ± 0.1 and the “GDF11 mRNA level (ΔΔCt values relative to basal vehicle control)” value [3, 4] was 0.7 ± 0.1. The “ICAM1 mRNA level (ΔΔCt values relative to basal vehicle control)” value [3, 4] was 0.3 ± 0.1^3, the “MKP1 mRNA level (ΔΔCt values relative to basal vehicle control)” value [3, 4] was 2.7 ± 1.1 and the “MafA mRNA level (ΔΔCt values relative to basal vehicle control)” value [3, 4] was 0.4 ± 0.1^3. For the same molecule, the “MafB mRNA level (ΔΔCt values relative to basal vehicle control)” value [3, 4] was 1.4 ± 0.5, the “NNAT mRNA level (ΔΔCt values relative to basal vehicle control)” value [3, 4] was 0.6 ± 0.1 and the “NPY mRNA level (ΔΔCt values relative to basal vehicle control)” value [3, 4] was 1.1 ± 0.3. For the same molecule, the “NR3C1 mRNA level (ΔΔCt values relative to basal vehicle control)” value [3, 4] was 1.0 ± 0.1, the “Pdx1 mRNA level (ΔΔCt values relative to basal vehicle control)” value [3, 4] was 0.8 ± 0.1 and the “TRH mRNA level (ΔΔCt values relative to basal vehicle control)” value [3, 4] was 1.2 ± 0.6.

In the case of `Cc1ccc(NCCCc2ccccc2)c(N)c1` [JSH-23], the “effect on 6MP induced DNA-synthesis and increase in cell numbers” value (rat beta cells [1]) is reported as “does not inhibit” and the “effect on ICAM1 mRNA levels” value [3] is reported as “suppressing”.

`CC#C[C@]1(O)CC[C@H]2[C@@H]3CCC4=CC(=O)CCC4=C3[C@@H](c3ccc(N(C)C)cc3)C[C@@]21C` [MIF, mifepristone] was tested, and the “effect on 6MP/DEX-stimulated increase of cell numbers” value (rat beta cells [2]; MIF 1 μM) was “inhibited”, the “Number … (% of Day 1)” value (rat beta cells [2]; [5]) was 104 ± 5 % of Day 1 and the “concentration giving maximal inhibition / prevention of DEX-stimulated increase of beta cell numbers” value (rat beta cells [2]) was 0.1 µM. For the same molecule, the “CDK4 mRNA level (ΔΔCt values relative to basal vehicle control)” value [3, 4] was 1.3 ± 0.2, the “CXCL11 mRNA level (ΔΔCt values relative to basal vehicle control)” value [3, 4] was 1.5 ± 0.6 and the “Cyclin B1 mRNA level (ΔΔCt values relative to basal vehicle control)” value [3, 4] was 1.0 ± 0.3. The “Cyclin B2 mRNA level (ΔΔCt values relative to basal vehicle control)” value [3, 4] was 0.6 ± 0.1^1, the “CyclinD1 mRNA level (ΔΔCt values relative to basal vehicle control)” value [3, 4] was 1.0 ± 0.1 and the “DLK1 mRNA level (ΔΔCt values relative to basal vehicle control)” value [3, 4] was 0.9 ± 0.2. For the same molecule, the “FKBP4 mRNA level (ΔΔCt values relative to basal vehicle control)” value [3, 4] was 0.7 ± 0.2, the “FKBP5 mRNA level (ΔΔCt values relative to basal vehicle control)” value [3, 4] was 0.7 ± 0.2 and the “MKP1 mRNA level (ΔΔCt values relative to basal vehicle control)” value [3, 4] was 1.3 ± 0.0. The “MafA mRNA level (ΔΔCt values relative to basal vehicle control)” value [3, 4] was 1.1 ± 0.3, the “MafB mRNA level (ΔΔCt values relative to basal vehicle control)” value [3, 4] was 0.6 ± 0.2 and the “NPY mRNA level (ΔΔCt values relative to basal vehicle control)” value [3, 4] was 0.8 ± 0.0. The “NR3C1 mRNA level (ΔΔCt values relative to basal vehicle control)” value [3, 4] was 1.1 ± 0.1 and the “Pdx1 mRNA level (ΔΔCt values relative to basal vehicle control)” value [3, 4] was 1.1 ± 0.3.

In the case of `CC(=O)S[C@@H]1CC2=CC(=O)CC[C@]2(C)[C@H]2CC[C@@]3(C)[C@@H](CC[C@@]34CCC(=O)O4)[C@H]12` [Spironolactone, spironolactone], the “Number … (% of Day 1)” value (rat beta cells [2]; [5]) is reported as 105 ± 5 % of Day 1.

With `O=C(CO)[C@@H](O)[C@@H](O)[C@H](O)[C@H](O)CO` [mannoheptulose] the “baseline and GC-induced proliferation of beta cells” value (rat beta cells [1]; competitive inhibition of GK, data not shown) was “reduces”.

B1: GDF11: secretory factor added to beta cell culture (10 nM) (protein, UniProt O95390 299-407, looked up)
Growth/differentiation factor …: NLGLDCDEHSSESRCCRYPLTVDFEAFGWDWIIAPKRYKANYCSGQCEYMFMQKYPHTHLVQQANPRGSAGPCCTPTKMSPINMLYFNDKQQIIYGKIPGMVVDRCGCS
For B1, the “effect on cell numbers in combination with 6MP” value (rat beta cells [2]; 15 days, 6MP 1 μM, GDF11 10 nM, TRH 5 nM) was “suppressed proliferation” and the “effect on cell numbers under basal conditions” value (rat beta cells [2]; 15 days, DLK1 0.5 μM, GDF11 10 nM, TRH 5 nM) was “modest increase of cell numbers”.
